Measurements reported in US12233073B2, “Skin care formulations and skin cancer treatment” (Regents of the University of Minnesota, priority 2017, dated 2025).

What was measured:
[1] = target: T1, PRPK in A431 lysates (Homo sapiens, UniProt Q96S44); assay: Ex vivo binding assay, drug-conjugated Sepharose 4B beads with A431 cell lysates; settings: pull-down with drug-conjugated Sepharose 4B beads
T1 construct: endogenous in cells; host or cells: A431
T1 sequence (Q96S44 1-253): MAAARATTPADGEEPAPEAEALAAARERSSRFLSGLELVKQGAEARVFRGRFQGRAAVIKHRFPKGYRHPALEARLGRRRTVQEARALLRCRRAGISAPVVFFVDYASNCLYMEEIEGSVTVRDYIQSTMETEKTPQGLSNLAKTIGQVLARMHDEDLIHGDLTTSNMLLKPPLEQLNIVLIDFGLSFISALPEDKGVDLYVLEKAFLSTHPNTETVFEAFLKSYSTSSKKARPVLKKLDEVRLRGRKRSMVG
Protocol: (§1) The interaction between rocuronium bromide and PRPK, and the inhibition of PRPK phosphorylation by rocuronium bromide was evaluated. In vitro and ex vivo binding assays were conducted using GST-PRPK or A431 cell lysates and rocuronium bromide-conjugated Sepharose 4B beads. FIG. 13A is a photograph illustrating a chromatographic plate showing the interaction and binding of PRPK with rocuronium bromide in A431 cells. FIG. 13B is a photograph illustrating a chromatographic plate showing the interaction and binding of rocuronium bromide with wildtype PRPK recombinant GST protein.
as §1, with “betamethasone 17-valerate” for “rocuronium bromide”, “using recombinant” for “using”, “betamethasone 17-valerate-conjugated” for “rocuronium bromide-conjugated”, “14A” for “13A”, “14B” for “13B”

[2] = target: T2, wildtype PRPK recombinant GST protein (Homo sapiens, UniProt Q96S44); assay: In vitro binding assay, drug-conjugated Sepharose 4B beads with GST-PRPK; settings: pull-down with drug-conjugated Sepharose 4B beads
T2 sequence (Q96S44 1-253): T1 sequence (Q96S44 1-253)
Protocol: as §1
as §1, with “betamethasone 17-valerate” for “rocuronium bromide”, “using recombinant” for “using”, “betamethasone 17-valerate-conjugated” for “rocuronium bromide-conjugated”, “14A” for “13A”, “14B” for “13B”

[3] = system: IFN-γ, IL-12 and PGE2; assay: Immune system markers (IFN-γ, IL-12, PGE2, T-cell markers) in the SSL-induced prevention models; assay type: in vivo, mouse; settings: for T cell infiltrates in mouse skin: CD3, CD4 markers; for production of IFN-γ in mouse serum: ELISA; for production of IFN-γ in mouse serum / production of IL-12 in mouse serum / production of IL-12 in mouse skin: SSL-induced prevention models; for PGE2 levels in the skin: SSL-exposed skin
Excerpt: Exposure to UV radiation suppresses the immune response and UV-induced immune suppression is a major risk factor for skin cancer. In particular, UV exposure induces the production of Th2-associated cytokines and interferes with antigen presentation to Th1 cells producing IFN-γ. To determine whether rocuronium bromide or betamethasone 17-valerate affects the immune system response, the level of immune system markers, including interferon-γ (IFN-γ), interleukin-12 (IL-12) and prostaglandin E2 (PGE2), in mouse serum and the T-cell markers, CD3 and CD4, were examined. CD3 is associated with the T-cell receptor (TCR) and is essential in signal transduction in T cells following TCR activation. Tumor microenvironment-mediated down-regulation of TCR-associated signaling leads to the inhibition of T cell function and antitumor immunity in the tumor-bearing host. Very few T cells are observed in the epidermis and dermis of solar UV-induced SCCs.
SSL-induced immunosuppressive responses are associated with production of Th2-related cytokines (IL-10) and disturbance of antigen presentation to Th1 cells producing IFN-γ. Therefore, SSL-induced immunosuppression could be prevented by the Th1 cytokine, IFN-γ. An enzyme-linked immunosorbent assay (ELISA) was performed to examine IFN-γ levels in mouse serum. FIG. 25A is a chart comparing the effect of rocuronium bromide treatment on enhancement of IFN-γ production by immune cells in an early-stage SSL-induced prevention model. IL-12 is an immunoregulatory cytokine to reverse UV-induced DNA damage and immunosuppression, and also regulates the function and development of Th1 type cells by stimulating IFN-γ production. Furthermore, treatment with recombinant IL-12 reversed the UV-induced immunosuppression. Additionally, PGE2 plays a key role as an activator of UV-induced immunosuppression through its down-regulation of the levels of IL-12. Thus, the effects of PRPK inhibitors on SSL-induced changes on the immunoregulatory cytokines, IL-12 and PGE2, were investigated.

[4] = system: PRPK; assay: SSL-induced phosphorylation of PRPK in JB6 cells; assay type: cell-based; settings: increasing concentrations added to the medium
Protocol: The effect of the binding of rocuronium bromide to PRPK on SSL-induced phosphorylation of PRPK was evaluated. FIG. 13C is a photograph illustrating a chromatographic plate showing the reduction in SSL-induced phosphorylation of PRPK in JB6 cells with increasing concentrations of rocuronium bromide, added into the medium. Thus, rocuronium bromide inhibited sUVL-induced phosphorylation of PRPK.
The effect of the binding of betamethasone 17-valerate to PRPK on SSL-induced phosphorylation of PRPK was evaluated. FIG. 14C is a photograph illustrating a chromatographic plate showing the reduction in SSL-induced phosphorylation of PRPK in JB6 cells with an increasing concentration of betamethasone 17-valerate, added to the medium. Thus, betamethasone 17-valerate inhibited SSL-induced phosphorylation of PRPK.

[5] = system: SSL-exposed skin of SKH-1 hairless mouse; assay: Acute SSL-induced skin inflammation in SKH-1 hairless mouse skin (H&E, p-PRPK staining and blot); assay type: in vivo; settings: for sUV-induced increase in PRPK expression / sUV-induced increase in epidermal thickness: topical in cream carrier, 24 h after SSL irradiation, vs untreated sUV-exposed group; for phosphorylation of PRPK in sUV-treated mouse skin / sUV-induced phosphorylation on increasing the concentration: topical treatment; for sUV-induced phosphorylation on increasing the concentration: higher concentration
Protocol: PRPK phosphorylation induced by sUV is a potent stimulator of skin inflammation. Inflammation contributes to tumor development and progression and metastasis often arises in acute and chronic inflammatory skin conditions and increased epidermal thickness is a sign of sUV-induced inflammatory responses. To examine the effect of rocuronium bromide on SSL-induced acute skin inflammation, H&E (haemotoxylin and eosin) staining on SSL-exposed skin tissues of SKH-1 hairless mouse skin was performed. FIG. 15 is a photographic array comparing epidermal thickness in mouse skin samples exposed to one or more of SSL, rocuronium bromide, and betamethasone 17-valerate. FIG. 16 is a photographic array comparing expression of phosphorylated PRPK in immunologically stained mouse skin samples exposed to one or more of SSL, rocuronium bromide, and […]. A cream carrier was used to apply the rocuronium bromide or betamethasone 17-valerate. […] In contrast, application of rocuronium bromide or betamethasone-17-valerate attenuated sUV-induced increases in epidermal thickness and PRPK expression compared to the untreated sUV-exposed group (FIGS. 15 and 16).
FIG. 17 is a photograph illustrating a chromatographic plate comparing the phosphorylation of PRPK in mouse skin tissue samples treated or not treated with rocuronium bromide and exposed or not exposed to SSL. FIG. 18 is a photograph illustrating a chromatographic plate comparing the phosphorylation of PRPK in mouse skin tissue samples treated or not treated with betamethasone 17-valerate and exposed or not exposed to SSL. Topical treatment with rocuronium bromide (FIG. 17) or betamethasone-17-valerate (FIG. 18) decreased phosphorylation of PRPK in sUV-treated mouse skin.

In the case of `CCCCC(=O)O[C@]1(C(=O)CO)[C@@H](C)C[C@H]2[C@@H]3CCC4=CC(=O)C=C[C@]4(C)[C@@]3(F)[C@@H](O)C[C@@]21C` [betamethasone 17-valerate], the “binding to PRPK in A431 lysates” value [1] is reported as “binds”, the “binding to GST-PRPK” value [2] is reported as “binds” and the “T cell infiltrates in mouse skin” value [3] is reported as “dense T cell infiltrates”. For the same compound, the “production of IFN-γ in mouse serum” value [3] was “increased”, the “PGE2 levels in the skin” value [3] was “decreased” and the “production of IL-12 in mouse serum” value [3] was “increased”. The “production of IL-12 in mouse skin” value [3] was “increased”, the “SSL-induced phosphorylation of PRPK” value [4] was “inhibited” and the “sUV-induced increase in PRPK expression” value [5] was “attenuated”. For the same compound, the “sUV-induced increase in epidermal thickness” value [5] was “attenuated”, the “phosphorylation of PRPK in sUV-treated mouse skin” value [5] was “decreased” and the “sUV-induced phosphorylation on increasing the concentration” value [5] was “further reduced”.

With `C=CC[N+]1([C@H]2C[C@H]3[C@@H]4CC[C@H]5C[C@H](O)[C@@H](N6CCOCC6)C[C@]5(C)[C@H]4CC[C@]3(C)[C@H]2OC(C)=O)CCCC1` [rocuronium bromide] the “binding to PRPK in A431 lysates” value [1] was “binds”, the “binding to GST-PRPK” value [2] was “binds” and the “T cell infiltrates in mouse skin” value [3] was “dense T cell infiltrates”. For the same compound, the “production of IFN-γ in mouse serum” value [3] was “increased”, the “PGE2 levels in the skin” value [3] was “decreased” and the “production of IL-12 in mouse serum” value [3] was “increased”. For the same compound, the “production of IL-12 in mouse skin” value [3] was “increased”, the “SSL-induced phosphorylation of PRPK” value [4] was “inhibited” and the “sUV-induced increase in PRPK expression” value [5] was “attenuated”. For the same compound, the “sUV-induced increase in epidermal thickness” value [5] was “attenuated”, the “phosphorylation of PRPK in sUV-treated mouse skin” value [5] was “decreased” and the “sUV-induced phosphorylation on increasing the concentration” value [5] was “further reduced”.
